According to patent publication US20200131144A1, “AMINE OR (THIO)AMIDE CONTAINING LXR MODULATORS” (Phenex-FXR GmbH, priority 2017, published 2020):

Columns and labels:
[1] = biological target: T1, LXRα ligand-binding domain (LBD) (Homo sapiens, UniProt Q13133); assay: LXR Gal4 reporter transient transfection assay, mammalian two-hybrid, LBD-M2H Gal4α; format: cell-based; settings: HEK293 cells; inverse agonist unless *
T1 construct: expressed in transfected cells; host or cells: HEK293
T1 sequence (Q13133 155-447): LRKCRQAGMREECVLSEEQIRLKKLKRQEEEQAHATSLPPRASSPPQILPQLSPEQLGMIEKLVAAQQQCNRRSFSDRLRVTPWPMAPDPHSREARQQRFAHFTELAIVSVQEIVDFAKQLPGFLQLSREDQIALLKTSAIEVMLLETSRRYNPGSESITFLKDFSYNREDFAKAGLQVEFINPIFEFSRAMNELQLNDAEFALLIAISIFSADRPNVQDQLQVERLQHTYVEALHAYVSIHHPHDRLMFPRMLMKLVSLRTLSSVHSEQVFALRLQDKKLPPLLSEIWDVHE
How it was run: (§1)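 HEK293 cells transiently cotransfected with NFkB-AD fusions of full-length or LBD LXRα/β, GAL4-DBD fusions of SRC1 coactivator or NCoR corepressor domains, GAL4-driven firefly luciferase and Renilla control. Compound added 4 h post-transfection (≤0.2% DMSO), 16 h incubation; firefly and Renilla luminescence read sequentially.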

[2] = biological target: T2, LXRβ ligand-binding domain (LBD) (Homo sapiens, UniProt P55055, INS174Q); assay: LXR Gal4 reporter transient transfection assay, mammalian two-hybrid, LBD-M2H Gal4β; format: cell-based; settings: HEK293 cells; inverse agonist unless *
T2 construct: or LXR (amino acids 156-461); expressed in transfected cells; host or cells: HEK293
T2 sequence (P55055 with tags, fused parts or gaps INS174Q limits assumed): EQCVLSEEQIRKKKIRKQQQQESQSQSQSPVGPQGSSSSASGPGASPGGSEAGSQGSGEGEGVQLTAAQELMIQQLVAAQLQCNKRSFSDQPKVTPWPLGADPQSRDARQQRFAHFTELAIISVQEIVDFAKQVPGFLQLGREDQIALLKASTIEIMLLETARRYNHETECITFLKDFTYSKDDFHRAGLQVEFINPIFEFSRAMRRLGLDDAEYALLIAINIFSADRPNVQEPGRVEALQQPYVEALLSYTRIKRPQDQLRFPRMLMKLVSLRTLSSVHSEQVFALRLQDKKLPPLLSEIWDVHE
How it was run: as §1

Compound | EC50 [1] [nM] | EC50 [2] [nM]
Cc1cc(C)c(C(=O)N(Cc2ccc(-c3cccc(C(C)(C)C(=O)O)c3)cc2)Cc2ccc(C(F)(F)F)o2)c(C)c1 [10/1] | 100 to 1000 | < 100
Cc1ccc2ccccc2c1C(=O)N(Cc1ccc(-c2cc(F)c(CO)c(S(=O)(=O)CC(=O)O)c2)cc1)Cc1ccc(C(F)(F)F)o1 [22/8] | < 100 | < 100
Cc1ccc2ccccc2c1C(=O)N(Cc1ccc(-c2cccc(S(=O)(=O)CC(=O)O)c2)cc1)Cc1ccc(C(F)(F)F)o1 [Example 9] | 100 to 1000 | 100 to 1000
Cc1ccc2ccccc2c1CN(Cc1ccc(-c2cccc(C(C)(C)C(=O)O)c2)cc1)Cc1ccc(C(F)(F)F)o1 [Example 24, 2-Methyl-2-(4′-((((2-methylnaphthalen-1-yl)methyl)((5-(trifluoromethyl)furan-2-yl)methyl)amino)methyl)-[1,1′-biphenyl]-3-yl)propanoic acid] | < 100 | < 100
